What was measured:
hCES1c [1] = molecular target: T1, hCES1c (Homo sapiens, UniProt P23141); assay: Initial activity screening of AB-PINACA (Thomsen et al. conditions) with hCES1c; format: in vitro ADME; design: purchased Corning (Amsterdam, The Netherlands); host or cells: baculovirus transfected insect cells; details: 10 µM, 20 min, 37 °C, 0.1 µg/µL protein
T1 sequence (P23141 18-566 isoform P23141-3 limits assumed): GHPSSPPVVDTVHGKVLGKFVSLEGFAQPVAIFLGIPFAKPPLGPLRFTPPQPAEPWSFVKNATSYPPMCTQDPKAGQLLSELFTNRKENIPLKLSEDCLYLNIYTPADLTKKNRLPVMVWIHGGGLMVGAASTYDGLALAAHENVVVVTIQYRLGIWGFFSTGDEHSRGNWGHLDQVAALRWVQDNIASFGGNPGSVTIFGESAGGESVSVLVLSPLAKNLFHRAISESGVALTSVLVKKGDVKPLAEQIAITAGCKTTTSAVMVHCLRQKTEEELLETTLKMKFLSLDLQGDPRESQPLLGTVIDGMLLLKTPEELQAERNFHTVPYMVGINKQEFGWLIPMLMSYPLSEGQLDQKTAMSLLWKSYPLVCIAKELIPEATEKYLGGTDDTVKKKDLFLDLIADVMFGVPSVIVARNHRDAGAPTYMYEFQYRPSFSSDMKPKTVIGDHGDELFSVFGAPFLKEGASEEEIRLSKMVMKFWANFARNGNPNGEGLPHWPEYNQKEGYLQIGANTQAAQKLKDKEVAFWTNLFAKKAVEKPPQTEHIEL
Description: (§1) The initial activity screening with AB-PINACA was conducted as described by Thomsen et al. with minor modifications (Thomsen et al. [2015]). […] All incubations were done in duplicate. […] Afterwards, 110 µL of 0.1% formic acid in water was added. […] Furthermore, 1 µL was analyzed by liquid chromatography–high-resolution tandem mass spectrometry (LC–HRMS/MS, apparatus details given in the Electronic Supplementary Material).
(§2) Data analysis was based on peak areas.

[2] = Initial activity screening of AB-PINACA (Thomsen et al. conditions) with pHLM; format: in vitro ADME, human; details: 10 µM, 20 min, 37 °C, 1 µg/µL protein
Description: as §1, §2

hCES2 [3] = molecular target: T2, hCES2 (Homo sapiens, UniProt O00748); assay: Initial activity screening of AB-PINACA (Thomsen et al. conditions) with hCES2; format: in vitro ADME; design: purchased Corning (Amsterdam, The Netherlands); host or cells: baculovirus transfected insect cells; details: 10 µM, 20 min, 37 °C, 0.1 µg/µL protein
T2 sequence (O00748 27-559): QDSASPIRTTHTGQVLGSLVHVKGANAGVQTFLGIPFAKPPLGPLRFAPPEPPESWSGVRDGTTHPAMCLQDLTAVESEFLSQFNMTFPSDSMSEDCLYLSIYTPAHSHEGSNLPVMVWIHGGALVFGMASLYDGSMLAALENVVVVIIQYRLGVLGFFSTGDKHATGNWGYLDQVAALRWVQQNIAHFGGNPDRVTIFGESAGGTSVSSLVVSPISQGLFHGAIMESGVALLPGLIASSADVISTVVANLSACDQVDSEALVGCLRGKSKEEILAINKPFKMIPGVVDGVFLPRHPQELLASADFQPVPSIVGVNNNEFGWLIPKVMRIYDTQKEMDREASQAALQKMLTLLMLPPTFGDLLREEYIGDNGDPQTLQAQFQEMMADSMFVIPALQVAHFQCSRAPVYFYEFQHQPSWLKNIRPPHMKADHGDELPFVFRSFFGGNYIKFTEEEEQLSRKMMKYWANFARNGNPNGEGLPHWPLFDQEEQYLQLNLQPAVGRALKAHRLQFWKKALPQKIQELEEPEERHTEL
Description: as §1, §2

[4] = Initial activity screening of AB-PINACA (Thomsen et al. conditions) with pHLS9; format: in vitro ADME, human; details: 10 µM, 20 min, 37 °C, 1 µg/µL protein
Description: as §1, §2

hCES1b [5] = molecular target: T3, hCES1b (Homo sapiens, UniProt P23141); assay: Initial activity screening of AB-PINACA (Thomsen et al. conditions) with hCES1b; format: in vitro ADME; design: purchased Corning (Amsterdam, The Netherlands); host or cells: baculovirus transfected insect cells; details: 10 µM, 20 min, 37 °C, 0.1 µg/µL protein
T3 sequence (P23141 18-567): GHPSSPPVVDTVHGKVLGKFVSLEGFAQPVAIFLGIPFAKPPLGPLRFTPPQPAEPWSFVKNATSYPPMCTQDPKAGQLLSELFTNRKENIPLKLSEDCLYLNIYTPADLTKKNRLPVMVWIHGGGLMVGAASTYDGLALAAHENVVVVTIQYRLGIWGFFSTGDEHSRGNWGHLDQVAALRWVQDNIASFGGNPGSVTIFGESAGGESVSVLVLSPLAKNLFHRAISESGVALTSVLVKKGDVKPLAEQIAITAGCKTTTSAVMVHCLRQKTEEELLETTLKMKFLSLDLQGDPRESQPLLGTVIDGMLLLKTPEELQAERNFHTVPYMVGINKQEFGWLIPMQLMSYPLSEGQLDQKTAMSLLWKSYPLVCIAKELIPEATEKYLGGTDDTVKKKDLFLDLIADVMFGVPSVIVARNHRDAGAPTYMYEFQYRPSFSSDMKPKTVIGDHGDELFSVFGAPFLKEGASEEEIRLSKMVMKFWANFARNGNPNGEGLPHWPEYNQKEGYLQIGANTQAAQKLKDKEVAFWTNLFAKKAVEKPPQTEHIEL
Description: as §1, §2

[6] = Initial activity screening with pooled human liver S9 fraction; details: 100 µM substrate, 30 min, 37 °C, 2 µg/µL protein, LC–ITMS, mean n = 2
hCES2 [7] = molecular target: T2, hCES2; assay: Initial activity screening with recombinant hCES2; details: 100 µM substrate, 30 min, 37 °C, 0.2 µg/µL protein, LC–ITMS
hCES1b [8] = molecular target: T3, hCES1b; assay: Enzyme kinetic studies of ester hydrolysis with hCES1b
hCES1c [9] = molecular target: T1, hCES1c; assay: Initial activity screening with recombinant hCES1c; details: 100 µM substrate, 30 min, 37 °C, 0.2 µg/µL protein, LC–ITMS
[10] = Initial activity screening with pooled human liver microsomes; details: 100 µM substrate, 30 min, 37 °C, 2 µg/µL protein, LC–ITMS, mean n = 2
hCES1b [11] = molecular target: T3, hCES1b; assay: Initial activity screening with recombinant hCES1b; details: 100 µM substrate, 30 min, 37 °C, 0.2 µg/µL protein, LC–ITMS
hCES1c [12] = molecular target: T1, hCES1c; assay: Enzyme kinetic studies of ester hydrolysis with hCES1c
not read [13] = substrate: COC(=O)C(Cc1ccccc1)NC(=O)c1cn(CCCCCF)c2ccccc12; assay: not read; details: other: ± S.D.; Michaelis–Menten fit, conditions of Table 1; pH 7.4
not read [14] = substrate: C=CCCCn1cc(C(=O)N[C@H](C(=O)OC)C(C)C)c2ccccc21; assay: not read; details: other: ± S.D.; Michaelis–Menten fit, conditions of Table 1; pH 7.4
[15] = ± S.D., peak area ratio metabolite/internal standard

For `CCCCCn1nc(C(=O)N[C@H](C(N)=O)C(C)C)c2ccccc21` [AB-PINACA, (S)-N-(1-amino-3-methyl-1-oxobutan-2-yl)-1-pentyl-1H-indazole-3-carboxamide], the “Metabolite detection by LC–ITMS, hCES1c” value (hCES1c [1]) was “no AB-PINACA metabolites were detected”, the “Relative amount of carboxylic acid metabolite formed (head group carboxamide hydrolysis), pHLM” value ([2]; LC–HRMS/MS) was 4.3% and the “Metabolite detection by LC–ITMS, pHLM” value ([2]; LC–ITMS) was “no AB-PINACA metabolites were detected”. For the same molecule, the “Metabolite detection by LC–ITMS, hCES2” value (hCES2 [3]) was “no AB-PINACA metabolites were detected”, the “Relative amount of carboxylic acid metabolite formed (head group carboxamide hydrolysis), pHLS9” value ([4]; LC–HRMS/MS) was 2.2% and the “Metabolite detection by LC–ITMS, pHLS9” value ([4]; LC–ITMS) was “no AB-PINACA metabolites were detected”. The “Relative amount of carboxylic acid metabolite formed (head group carboxamide hydrolysis), hCES1b” value (hCES1b [5]; LC–HRMS/MS) was 1.4% and the “Metabolite detection by LC–ITMS, hCES1b” value (hCES1b [5]; LC–ITMS) was “no AB-PINACA metabolites were detected”.

With “N-[(2S)-1-amino-3,3-dimethyl-1-oxobutan-2-yl]-1-[(4-fluorophenyl)methyl]-1H-indazole-3-carboxamide [MMB-FUBINACA]” the “Relative amount of hydrolysis metabolite formed, pHLS9” value [6] was “complete transformation”, the “Hydrolysis of carboxamide linker, hCES2” value (hCES2 [7]) was “−” and the “Hydrolysis of carboxamide/ester in head group, hCES2” value (hCES2 [7]) was “+”. For the same molecule, the “Relative amount of hydrolysis metabolite formed, hCES2” value (hCES2 [7]; mean n = 2) was 3.2%, the “Clint (relative in vitro intrinsic clearance), hCES1b” value (hCES1b [8]; Clint = Vmax/Km) was 1.7 AU/min/mg/µM and the Km (hCES1b [8]; read-out: Km, ester hydrolysis by hCES1b, ± S.D., Michaelis–Menten fit, conditions of Table 1) was 40.8 ± 15 µM. The “Vmax (relative), ester hydrolysis by hCES1b” value (hCES1b [8]; [15]) was 70.3 ± 7.6 AU/min/mg, the “Hydrolysis of carboxamide linker, hCES1c” value (hCES1c [9]) was “−” and the “Hydrolysis of carboxamide/ester in head group, hCES1c” value (hCES1c [9]) was “+”. For the same molecule, the “Relative amount of hydrolysis metabolite formed, hCES1c” value (hCES1c [9]; mean n = 2) was 87%, the “Relative amount of hydrolysis metabolite formed, pHLM” value [10] was “complete transformation” and the “Hydrolysis of carboxamide linker, hCES1b” value (hCES1b [11]) was “−”. For the same molecule, the “Hydrolysis of carboxamide/ester in head group, hCES1b” value (hCES1b [11]) was “+”, the “Relative amount of hydrolysis metabolite formed, hCES1b” value (hCES1b [11]; mean n = 2) was 78% and the “Clint (relative in vitro intrinsic clearance), hCES1c” value (hCES1c [12]; Clint = Vmax/Km) was 1.2 AU/min/mg/µM. The Km (hCES1c [12]; read-out: Km, ester hydrolysis by hCES1c, ± S.D., Michaelis–Menten fit, conditions of Table 1) was 25.7 ± 3.5 µM and the “Vmax (relative), ester hydrolysis by hCES1c” value (hCES1c [12]; [15]) was 30.7 ± 0.96 AU/min/mg.

B1: hCES1b (Homo sapiens) (protein)
chain: GHPSSPPVVDTVHGKVLGKFVSLEGFAQPVAIFLGIPFAKPPLGPLRFTPPQPAEPWSFVKNATSYPPMCTQDPKAGQLLSELFTNRKENIPLKLSEDCLYLNIYTPADLTKKNRLPVMVWIHGGGLMVGAASTYDGLALAAHENVVVVTIQYRLGIWGFFSTGDEHSRGNWGHLDQVAALRWVQDNIASFGGNPGSVTIFGESAGGESVSVLVLSPLAKNLFHRAISESGVALTSVLVKKGDVKPLAEQIAITAGCKTTTSAVMVHCLRQKTEEELLETTLKMKFLSLDLQGDPRESQPLLGTVIDGMLLLKTPEELQAERNFHTVPYMVGINKQEFGWLIPMQLMSYPLSEGQLDQKTAMSLLWKSYPLVCIAKELIPEATEKYLGGTDDTVKKKDLFLDLIADVMFGVPSVIVARNHRDAGAPTYMYEFQYRPSFSSDMKPKTVIGDHGDELFSVFGAPFLKEGASEEEIRLSKMVMKFWANFARNGNPNGEGLPHWPEYNQKEGYLQIGANTQAAQKLKDKEVAFWTNLFAKKAVEKPPQTEHIEL
For B1, the Km (not read [13]) was 88.9 ± 18 µM.

B2: hCES1c (Homo sapiens) (protein)
chain: GHPSSPPVVDTVHGKVLGKFVSLEGFAQPVAIFLGIPFAKPPLGPLRFTPPQPAEPWSFVKNATSYPPMCTQDPKAGQLLSELFTNRKENIPLKLSEDCLYLNIYTPADLTKKNRLPVMVWIHGGGLMVGAASTYDGLALAAHENVVVVTIQYRLGIWGFFSTGDEHSRGNWGHLDQVAALRWVQDNIASFGGNPGSVTIFGESAGGESVSVLVLSPLAKNLFHRAISESGVALTSVLVKKGDVKPLAEQIAITAGCKTTTSAVMVHCLRQKTEEELLETTLKMKFLSLDLQGDPRESQPLLGTVIDGMLLLKTPEELQAERNFHTVPYMVGINKQEFGWLIPMLMSYPLSEGQLDQKTAMSLLWKSYPLVCIAKELIPEATEKYLGGTDDTVKKKDLFLDLIADVMFGVPSVIVARNHRDAGAPTYMYEFQYRPSFSSDMKPKTVIGDHGDELFSVFGAPFLKEGASEEEIRLSKMVMKFWANFARNGNPNGEGLPHWPEYNQKEGYLQIGANTQAAQKLKDKEVAFWTNLFAKKAVEKPPQTEHIEL
B2 gave a Km (not read [13]) of 23.2 ± 4.1 µM and a Km (not read [14]) of 203 ± 43 µM.
